Measured values reported in patent US10301317B2, “Inhibitors of ERK and methods of use” (Kura Oncology, Inc., priority 2013, dated 2019).

The compounds below were run on phospho-p90 RSK (RSK1 Thr359/Ser363) in A375 (Braf V600E) cells (assay: Phospho-p90 RSK ELISA using A375 (Braf V600E) cells). Details: Homo sapiens, A-375, 2 hours compound treatment, read-out: Cellular Phospho-p90RSK IC50.
Type: cell-based
Description: In preparation for the assay, an ELISA plate with the pre-coated goat anti-mouse antibody (Thermo Scientific) was treated with a mouse anti-human RSK1 antibody (monoclonal, Invitrogen) at 1:800 dilution (150 ng/well) in PBS, and the plate was placed on a plate shaker at 4° C. overnight. […] After two […] of the compound treatment, the supernatant was removed from the cell plate, and cells were lysed in 100 μl per well of cell lysis buffer (Cell Signaling Technologies) containing phosphatase and protease inhibitors (Cell Signaling Technologies) on a plate shaker at 4° C. for 20 minutes. The ELISA plate was washed four times with ELISA wash buffer (Thermo Scientific) prior to addition of 100 μL cell lysate. The lysate was incubated on the ELISA plate with gentle shaking at room temperature for 2 hours. The contents of the wells were removed, and the ELISA plate was washed four times with wash buffer, and incubated with 100 μL per well of anti-phospho-RSK1 (Thr359/Ser363) rabbit monoclonal antibody (Millipore) at dilution of 1:1000 in StartingBlock buffer (Thermo Scientific) on a plate shaker at room temperature for 1 hour. The contents of the wells were removed, the ELISA plate was washed four times with wash buffer, and was incubated with 100 μL per well of goat anti-rabbit HRP (Thermo Scientific) at dilution of 1:3000 in StartingBlock buffer (Thermo Scientific) on a plate shaker at room temperature for 1 hour. The contents of the wells were removed, the ELISA plate was washed four times with wash buffer, and then incubated with 100 μL per well of TMB substrate solution (Thermo Scientific) on a plate shaker at room temperature for 20 minutes. Finally, 100 μL of TMB stop solution (Thermo Scientific) was added to each well and the absorbance is measured at 450 nm on a Tecan plate reader.

| Compound | IC50 [nM] |
| --- | --- |
| Cc1cc(-c2n[nH]c3cc4c(cc23)CN([C@@H]2CN(C)C[C@H]2C(C)C)C(=O)N4)ccn1 (mixture of isomers) [Example 327] | > 1000 |
| O=C1Nc2cc3[nH]nc(-c4ccc(F)cc4)c3cc2CN1Cc1ccc(F)c(Cl)c1 [Example 40] | > 1000 |
| O=C1Nc2cc3[nH]nc(C4CC4)c3cc2CN1Cc1ccc(F)c(Cl)c1 [Example 42] | > 1000 |
| Cc1cc(-c2n[nH]c3cc4c(cc23)CN(CCO)C(=O)N4)ccn1 [Example 43] | > 1000 |
| Cc1cc(-c2n[nH]c3cc4c(cc23)CN(CCN(C)C)C(=O)N4)ccn1 [Example 46] | > 1000 |
| Cc1cc(-c2n[nH]c3cc4c(cc23)CN(CCN2CCOCC2)C(=O)N4)ccn1 [Example 51] | > 1000 |
| Cc1cc(-c2n[nH]c3cc4c(cc23)CN([C@H](C)CO)C(=O)N4)ccn1 [Example 54] | > 1000 |
| O=C1Nc2cc3[nH]nc(-c4ccc5nncn5c4)c3cc2CN1Cc1cccc(Cl)c1 [Example 59] | > 1000 |
| O=C1Nc2cc3[nH]nc(-c4cn[nH]c4)c3cc2CN1Cc1cccc(Cl)c1 [Example 60] | > 1000 |
| O=C1Nc2cc3[nH]nc(-c4ccc(=O)[nH]c4)c3cc2CN1Cc1cccc(Cl)c1 [Example 61] | > 1000 |
| Cc1cc(-c2n[nH]c3cc4c(cc23)CN(CCc2ccc(F)cc2)CC(=O)N4)ccn1 [Example 67] | > 1000 |
| Cc1cc(-c2n[nH]c3cc4c(cc23)CN(C2CCN(Cc3ccccc3)CC2)C(=O)N4)ccn1 [Example 70] | 250 to 1000 |
| Cc1cc(-c2n[nH]c3cc4c(cc23)CN(CCN)C(=O)N4)ccn1 [Example 83] | > 1000 |
| COc1ncc(-c2n[nH]c3cc4c(cc23)CN([C@H](C)c2ccc(Cl)cc2)C(=O)N4)cn1 [Example 95] | 250 to 1000 |
| O=C1Nc2cc3[nH]nc(-c4ccnnc4)c3cc2CN1Cc1ccc(F)cc1 [Example 97] | 250 to 1000 |
| COc1ncc(-c2n[nH]c3cc4c(cc23)CN([C@H](C)c2cccc(C#N)c2)C(=O)N4)cn1 [Example 100] | 250 to 1000 |
| O=C1Nc2cc3[nH]nc(-c4ccnnc4)c3cc2CN1CCc1ccc(F)cc1 [Example 110] | 250 to 1000 |
| C[C@H](c1cccc(Cl)c1)N1Cc2cc3c(-c4ccnnc4)n[nH]c3cc2NC1=O [Example 111] | 250 to 1000 |
| O=C1Nc2cc3[nH]nc(-c4ccnnc4)c3cc2CN1Cc1ccc(F)cc1F [Example 114] | 250 to 1000 |
| C[C@H](c1ccc(Cl)cc1)N1Cc2cc3c(-c4ccnnc4)n[nH]c3cc2NC1=O [Example 115] | 250 to 1000 |
| O=C1Nc2cc3[nH]nc(-c4ccnnc4)c3cc2CN1[C@H](CO)c1cccc(Cl)c1 [Example 117] | > 1000 |
| O=C1Nc2cc3[nH]nc(-c4ccnnc4)c3cc2CN1Cc1cccc(C(F)(F)F)c1 [Example 124] | 250 to 1000 |
| COc1ncc(-c2n[nH]c3cc4c(cc23)CN(Cc2cccc(C#N)c2)C(=O)N4)cn1 [Example 125] | 250 to 1000 |
| O=C1Nc2cc3[nH]nc(-c4ccnnc4)c3cc2CN1Cc1cc(F)cc(F)c1 [Example 127] | 250 to 1000 |
| N#Cc1cccc(CN2Cc3cc4c(-c5ccnnc5)n[nH]c4cc3NC2=O)c1 [Example 128] | > 1000 |
| COc1ncc(-c2n[nH]c3cc4[nH]c(=O)c(C(C)c5cccc(Cl)c5)cc4cc23)cn1 (centres unmarked) [Example 129] | 250 to 1000 |
| Cc1ccc(CN2CCC[C@@H](N3Cc4cc5c(-c6ccnc(C)c6)n[nH]c5cc4NC3=O)C2)cn1 [Example 131] | > 1000 |
| Cc1cc(-c2n[nH]c3cc4c(cc23)CN([C@@H]2CCCN(Cc3cnn(C)c3)C2)C(=O)N4)ccn1 [Example 133] | > 1000 |
| Cc1cc(-c2n[nH]c3cc4c(cc23)CN([C@@H]2CCCN(CC3CCC3)C2)C(=O)N4)ccn1 [Example 137] | 250 to 1000 |

Results, then the compound that gave them:

| IC50 [nM] | Compound |
| --- | --- |
| 250 to 1000 | Cc1cc(-c2n[nH]c3cc4c(cc23)CN([C@@H]2CN(CC(F)(F)F)C[C@H]2C2CC2)C(=O)N4)ccn1 (mixture of isomers) [Example 319] |
| 250 to 1000 | Cc1cc(-c2n[nH]c3cc4c(cc23)CN([C@@H]2CN(CC(F)(F)F)C[C@H]2C(C)C)C(=O)N4)ccn1 (mixture of isomers) [Example 322] |
| ≤ 250 | COc1ccc(-c2n[nH]c3cc4c(cc23)CN([C@@H]2CN(C)C[C@H]2c2ccccc2)C(=O)N4)cn1 (mixture of isomers) [Example 353] |
| ≤ 250 | COc1cc(-c2n[nH]c3cc4c(cc23)CN([C@@H]2CN(C)C[C@H]2c2ccccc2)C(=O)N4)ccn1 (mixture of isomers) [Example 354] |
| 250 to 1000 | COc1ncc(-c2n[nH]c3cc4c(cc23)CN([C@@H]2CN(C)C[C@H]2c2ccccc2)C(=O)N4)cn1 (mixture of isomers) [Example 355] |
| ≤ 250 | Cc1cc(-c2n[nH]c3cc4c(cc23)CN([C@@H]2CN(CCC#N)C[C@H]2c2ccccc2)C(=O)N4)ccn1 (mixture of isomers) [Example 356] |
| 250 to 1000 | Cc1cc(-c2n[nH]c3cc4c(cc23)CN([C@@H]2CN(C3CCOCC3)C[C@H]2c2ccccc2)C(=O)N4)ccn1 (mixture of isomers) [Example 359] |
| 250 to 1000 | Cc1cc(-c2n[nH]c3cc4c(cc23)CN([C@@H]2CN(CCC(F)(F)F)C[C@H]2c2ccccc2)C(=O)N4)ccn1 (mixture of isomers) [Example 387] |
| 250 to 1000 | Cc1cc(-c2n[nH]c3cc4c(cc23)CN([C@@H]2CNC[C@H]2c2ccccc2)C(=O)N4)ccn1 (racemic) [Example 223] |
| ≤ 250 | Cc1cc(-c2n[nH]c3cc4c(cc23)CN([C@@H]2CN(CC(F)(F)F)C[C@H]2c2ccc(F)cc2)C(=O)N4)ccn1 (racemic) [Example 300] |
| ≤ 250 | Cc1cc(-c2n[nH]c3cc4c(cc23)CN([C@@H]2CN(CC(F)(F)F)C[C@H]2C)C(=O)N4)ccn1 (racemic) [Example 302] |
| ≤ 250 | Cc1cc(-c2n[nH]c3cc4[nH]c(=O)c(Cc5ccccc5)cc4cc23)ccn1 [Example 6] |
| 250 to 1000 | COc1cc(-c2n[nH]c3cc4c(cc23)CN(Cc2ccc(F)c(Cl)c2)C(=O)N4)ccn1 [Example 38] |
| 250 to 1000 | Cc1cc(-c2n[nH]c3cc4c(cc23)CN(C2CCOCC2)C(=O)N4)ccn1 [Example 44] |
| 250 to 1000 | COCCOCCN1Cc2cc3c(-c4ccnc(C)c4)n[nH]c3cc2NC1=O [Example 45] |
| 250 to 1000 | O=C1Nc2cc3[nH]nc(-c4cn[nH]c4)c3cc2CN1Cc1ccc(F)c(Cl)c1 [Example 48] |
| ≤ 250 | Cc1cc(-c2n[nH]c3cc4c(cc23)CN(CCc2cccc(Cl)c2)C(=O)N4)ccn1 [Example 50] |
| 250 to 1000 | Cc1cc(-c2n[nH]c3cc4c(cc23)CN(C(C)CC(C)C)C(=O)N4)ccn1 (centres unmarked) [Example 53] |

| IC50 [nM] | Compound |
| --- | --- |
| ≤ 250 | Cc1cc(-c2n[nH]c3cc4c(cc23)CN(Cc2cccc(C#N)c2)C(=O)N4)ccn1 [Example 55] |
| 250 to 1000 | Cc1cc(-c2n[nH]c3cc4c(cc23)CN(Cc2nccs2)C(=O)N4)ccn1 [Example 56] |
| ≤ 250 | O=C1Nc2cc3[nH]nc(-c4cccnc4)c3cc2CN1Cc1cccc(Cl)c1 [Example 57] |
| ≤ 250 | Cc1ccc(-c2n[nH]c3cc4c(cc23)CN(Cc2cccc(Cl)c2)C(=O)N4)cn1 [Example 58] |
| 250 to 1000 | Cc1cc(-c2n[nH]c3cc4c(cc23)CN([C@@H]2CCCN(CC3CC3)C2)C(=O)N4)ccn1 [Example 62] |
| ≤ 250 | COc1ncc(-c2n[nH]c3cc4c(cc23)CN([C@H](C)c2cccc(Cl)c2)C(=O)N4)cn1 [Example 71] |
| ≤ 250 | COc1ncc(-c2n[nH]c3cc4c(cc23)CN(Cc2ccc(F)cc2)C(=O)N4)cn1 [Example 72] |
| ≤ 250 | COc1ccc(-c2n[nH]c3cc4c(cc23)CN(Cc2cccc(Cl)c2)C(=O)N4)cn1 [Example 75] |
| ≤ 250 | COc1ccc(-c2n[nH]c3cc4c(cc23)CN(Cc2ccc(F)cc2)C(=O)N4)cn1 [Example 76] |
| ≤ 250 | O=C1Nc2cc3[nH]nc(N4CCOCC4)c3cc2CN1Cc1cccc(Cl)c1 [Example 78] |
| ≤ 250 | COc1ncc(-c2n[nH]c3cc4c(cc23)CN(CCc2cccc(Cl)c2)C(=O)N4)cn1 [Example 86] |
| ≤ 250 | COc1ncc(-c2n[nH]c3cc4c(cc23)CN(Cc2cc(F)cc(F)c2)C(=O)N4)cn1 [Example 88] |
| ≤ 250 | Cc1ncc(-c2n[nH]c3cc4c(cc23)CN(Cc2cccc(Cl)c2)C(=O)N4)cn1 [Example 90] |
| ≤ 250 | COc1ncc(-c2n[nH]c3cc4c(cc23)CN([C@H](CO)c2cccc(Cl)c2)C(=O)N4)cn1 [Example 118] |
| ≤ 250 | O=C1Nc2cc3[nH]nc(-c4ccnnc4)c3cc2CN1[C@@H]1CCCN(Cc2ccccc2F)C1 [Example 121] |
| ≤ 250 | O=C1Nc2cc3[nH]nc(-c4ccnnc4)c3cc2CN1[C@@H]1CCCN(Cc2c(F)cccc2F)C1 [Example 122] |
| ≤ 250 | COc1cccc(F)c1CN1CCC[C@@H](N2Cc3cc4c(-c5ccnnc5)n[nH]c4cc3NC2=O)C1 [Example 126] |
| ≤ 250 | Cc1cc(-c2n[nH]c3cc4c(cc23)CN([C@@H]2CCCN(CC3CC5CCC3C5)C2)C(=O)N4)ccn1 (some centres unmarked) [Example 142] |
